From US12662491B2 (Redona Therapeutics, Inc., priority 2020, dated 2026)

Biological target: T1, Zcchc11 enzyme (Homo sapiens, UniProt Q5TAX3)
T1 construct: made in house; host or cells: HEK293 cells (Zcchc11); E. coli Rosetta II (LIN28A)
T1 sequence (Q5TAX3 212-1420): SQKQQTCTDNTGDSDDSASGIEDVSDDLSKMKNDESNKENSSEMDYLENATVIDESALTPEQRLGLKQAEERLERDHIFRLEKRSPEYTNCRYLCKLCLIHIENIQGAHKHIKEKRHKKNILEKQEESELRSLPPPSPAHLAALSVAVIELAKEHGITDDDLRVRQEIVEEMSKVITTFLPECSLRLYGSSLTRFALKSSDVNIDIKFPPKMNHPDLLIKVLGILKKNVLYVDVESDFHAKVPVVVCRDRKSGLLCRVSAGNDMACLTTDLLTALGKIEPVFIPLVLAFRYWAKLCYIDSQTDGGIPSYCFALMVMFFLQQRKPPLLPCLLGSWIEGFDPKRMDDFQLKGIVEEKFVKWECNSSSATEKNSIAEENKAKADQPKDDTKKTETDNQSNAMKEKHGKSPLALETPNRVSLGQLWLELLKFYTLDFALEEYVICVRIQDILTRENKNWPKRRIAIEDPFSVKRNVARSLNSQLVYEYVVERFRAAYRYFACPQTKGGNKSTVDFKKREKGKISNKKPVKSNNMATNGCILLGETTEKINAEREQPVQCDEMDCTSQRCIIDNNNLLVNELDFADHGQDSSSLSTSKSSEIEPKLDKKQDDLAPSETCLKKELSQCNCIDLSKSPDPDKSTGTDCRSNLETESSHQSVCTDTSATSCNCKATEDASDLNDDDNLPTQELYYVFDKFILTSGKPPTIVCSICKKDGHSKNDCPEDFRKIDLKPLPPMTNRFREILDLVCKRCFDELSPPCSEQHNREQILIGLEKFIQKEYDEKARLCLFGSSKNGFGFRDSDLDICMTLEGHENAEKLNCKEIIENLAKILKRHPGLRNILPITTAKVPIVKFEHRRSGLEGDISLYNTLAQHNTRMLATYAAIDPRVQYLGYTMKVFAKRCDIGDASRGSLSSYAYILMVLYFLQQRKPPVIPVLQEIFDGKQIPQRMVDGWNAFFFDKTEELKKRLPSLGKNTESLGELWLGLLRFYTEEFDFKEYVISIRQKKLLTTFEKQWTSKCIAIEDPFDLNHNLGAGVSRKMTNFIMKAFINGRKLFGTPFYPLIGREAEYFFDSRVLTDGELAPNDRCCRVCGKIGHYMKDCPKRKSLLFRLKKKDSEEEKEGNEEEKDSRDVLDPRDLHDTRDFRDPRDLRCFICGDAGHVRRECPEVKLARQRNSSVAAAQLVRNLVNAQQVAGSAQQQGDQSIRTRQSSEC
Test: TUTase assay (Zcchc11 assay, Lin28a-dependent polyuridylation of pre-let-7)
Assay type: biochemical
Details: LIN28A 10 nM, Zcchc11 0.2 nM, 5′-fluorescein pre-let-7 miRNA 2 nM, UTP 5 uM, room temperature, 30 minutes pre-incubation; read-out: Potency Lin28a-dep Z11 IC50
In short: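 Readout: time-dependent quench of 5′-fluorescein pre-let-7 (2 nM) as 3′-rhodamine A20 probe anneals to poly(U) tails. Enzyme 0.2 nM Zcchc11 (res. 212-1420), LIN28A 10 nM, UTP 5 uM; pH 7.3 HEPES, 150 mM KCl, 5 mM MgCl2, RT. 4-parameter IC50; 100% = DMSO, 0% = no UTP.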

**Q.** For `COc1c(N2CCC[C@@H]2COc2ccccn2)c(F)cc2c(=O)c(C(=O)O)cn(C3CC3)c12` [Example 3, (R)-1-cyclopropyl-6-fluoro-8-methoxy-4-oxo-7-(2-((pyridin-2-yloxy)methyl)pyrrolidin-1-yl)-1,4-dihydroquinoline-3-carboxylic acid], which IC50 is on record?
**A.** > 50000 nM

**Q.** How did the IC50 turn out when `O=C(O)c1cn(-c2ccccc2)c2cc(N3CCC[C@@H]3COc3ccccc3)c(F)cc2c1=O` [Example 4, (R)-6-fluoro-4-oxo-7-(2-(phenoxymethyl)pyrrolidin-1-yl)-1-phenyl-1,4-dihydroquinoline-3-carboxylic acid] was run?
**A.** > 50000 nM

**Q.** For `Cc1cccnc1OC[C@H]1CCCN1c1cc2c(cc1F)c(=O)c(C(=O)O)cn2-c1ccccc1` [Example 5, (R)-6-fluoro-7-(2-(((3-methylpyridin-2-yl)oxy)methyl)pyrrolidin-1-yl)-4-oxo-1-phenyl-1,4-dihydroquinoline-3-carboxylic acid], which IC50 is on record?
**A.** ≤ 1000 nM

**Q.** With `CCc1cccnc1OC[C@H]1CCCN1c1cc2c(cc1F)c(=O)c(C(=O)O)cn2-c1ccccc1` [Example 6, (R)-7-(2-(((3-ethylpyridin-2-yl)oxy)methyl)pyrrolidin-1-yl)-6-fluoro-4-oxo-1-phenyl-1,4-dihydroquinoline-3-carboxylic acid] as the molecule, how does the IC50 read?
**A.** > 50000 nM

**Q.** `Cc1cccnc1OC[C@H]1CC(C)CN1c1cc2c(cc1F)c(=O)c(C(=O)O)cn2-c1ccc(O)cc1` (stereo partly drawn) [Example 7, 6-fluoro-1-(4-hydroxyphenyl)-7-((2R)-4-methyl-2-(((3-methylpyridin-2-yl)oxy)methyl)pyrrolidin-1-yl)-4-oxo-1,4-dihydroquinoline-3-carboxylic acid] was tested. Which IC50 did it give?
**A.** ≤ 1000 nM

**Q.** With `CC(Oc1ncccc1Cl)[C@H]1CCCN1c1cc2c(cc1Cl)c(=O)c(C(=O)O)cn2-c1ccccc1` (stereo partly drawn) [Example 8, (R)-6-chloro-7-(2-(1-((3-chloropyridin-2-yl)oxy)ethyl)pyrrolidin-1-yl)-4-oxo-1-phenyl-1,4-dihydroquinoline-3-carboxylic acid] as the molecule, how does the IC50 read?
**A.** 1000 to 10000 nM

**Q.** For `CC1(n2cc(C(=O)O)c(=O)c3cc(Cl)c(N4CCC[C@@H]4COc4ncccc4Cl)c(F)c32)CC1` [Example 9, (R)-6-chloro-7-(2-(((3-chloropyridin-2-yl)oxy)methyl)pyrrolidin-1-yl)-8-fluoro-1-(1-methylcyclopropyl)-4-oxo-1,4-dihydroquinoline-3-carboxylic acid], which IC50 is on record?
**A.** 1000 to 10000 nM

**Q.** Which IC50 does the source give for `CN(C[C@H]1CCCN1c1cc2c(cc1F)c(=O)c(C(=O)O)cn2-c1ccc(O)cc1)c1ncccc1Cl` [Example 10, (R)-7-(2-(((3-chloropyridin-2-yl)(methyl)amino)methyl)pyrrolidin-1-yl)-6-fluoro-1-(4-hydroxyphenyl)-4-oxo-1,4-dihydroquinoline-3-carboxylic acid] here?
**A.** 1000 to 10000 nM

**Q.** `O=C(O)c1cn(-c2ccc(O)cc2)c2cc(N3CCC[C@@H]3Cn3ccc4ncccc43)c(F)cc2c1=O` [Example 11, (R)-7-(2-((1H-pyrrolo[3,2-b]pyridin-1-yl)methyl)pyrroledin-1-yl)-6-fluoro-1-(4-hydroxyphenyl)-4-oxo-1,4-dihydroquinoline-3-carboxylic acid] was tested. Which IC50 did it give?
**A.** ≤ 1000 nM

**Q.** With `O=C(O)c1cn(-c2ccc(O)cc2)c2cc(N3CCC[C@@H]3COc3cc4[nH]ccc4cn3)c(F)cc2c1=O` [Example 12, (R)-7-(2-(((1H-pyrrolo[3,2-c]pyridine-6-yl)oxy)methyl)pyrrolidin-1-yl)-6-fluoro-1-(4-hydroxyphenyl)-4-oxo-1,4-dihydroquinoline-3-carboxylic acid] as the molecule, how does the IC50 read?
**A.** ≤ 1000 nM

**Q.** How did the IC50 turn out when `Cc1cccnc1OC[C@H]1CCCN1c1cc2c(cc1F)c(=O)c(C(=O)O)cn2-c1ccc(N)nc1` [Example 13, (R)-1-(6-aminopyridin-3-yl)-6-fluoro-7-(2-(((3-methylpyridin-2-yl)oxy)methyl)pyrrolidin-1-yl)-4-oxo-1,4-dihydroquinoline-3-carboxylic acid] was run?
**A.** ≤ 1000 nM

**Q.** How did the IC50 turn out when `Cc1cccnc1OC[C@H]1CCCN1c1cc2c(cc1F)c(=O)c(C(=O)O)cn2C1CCOCC1` [Example 14, 6-fluoro-7-[(2R)-2-[[(3-methylpyridin-2-yl)oxy]methyl]pyrrolidin-1-yl]-1-(oxan-4-yl)-4-oxoquinoline-3-carboxylic acid] was run?
**A.** ≤ 1000 nM

**Q.** How did the IC50 turn out when `Cc1cccnc1OC[C@H]1CCCN1c1cc2c(cc1F)c(=O)c(C(=O)O)cn2-c1cnccn1` [Example 15, (R)-6-fluoro-7-(2-(((3-methylpyridin-2-yl)oxy)methyl)pyrrolidin-1-yl)-4-oxo-1-(pyrazin-2-yl)-1,4-dihydroquinoline-3-carboxylic acid] was run?
**A.** ≤ 1000 nM

**Q.** How did the IC50 turn out when `CN(C)CCOc1cnc(-n2cc(C(=O)O)c(=O)c3cc(F)c(N4CCC[C@@H]4COc4ncccc4Cl)cc32)cn1` [Example 16, (R)-7-(2-(((3-chloropyridin-2-yl)oxy)methyl)pyrrolidin-1-yl)-1-(5-(2-(dimethylamino)ethoxy)pyrazin-2-yl)-6-fluoro-4-oxo-1,4-dihydroquinoline-3-carboxylic acid] was run?
**A.** ≤ 1000 nM

**Q.** Which IC50 does the source give for `Cc1cccnc1OC[C@H]1CCCN1c1cc2c(cc1F)c(=O)c(C(=O)O)cn2-c1ccc(OCCN(C)C)cc1` [Example 17, (R)-1-(4-(2-(dimethylamino)ethoxy)phenyl)-6-fluoro-7-(2-(((3-methylpyridin-2-yl)oxy)methyl)pyrrolidin-1-yl)-4-oxo-1,4-dihydroquinoline-3-carboxylic acid] here?
**A.** ≤ 1000 nM

**Q.** Which IC50 does the source give for `O=C(O)c1cn(-c2ccc3c(c2)COC3)c2cc(N3CCC[C@@H]3COc3ncccc3Cl)c(Cl)cc2c1=O` [Example 18, (R)-6-chloro-7-(2-(((3-chloropyridin-2-yl)oxy)methyl)pyrrolidin-1-yl)-1-(1,3-dihydroisobenzofuran-5-yl)-4-oxo-1,4-dihydroquinoline-3-carboxylic acid] here?
**A.** ≤ 1000 nM

**Q.** With `O=C(O)c1cn(-c2cnccn2)c2nc(N3CCC[C@@H]3COc3ncccc3Cl)c(Cl)cc2c1=O` [Example 19, (R)-6-chloro-7-(2-(((3-chloropyridin-2-yl)oxy)methyl)pyrrolidin-1-yl)-4-oxo-1-(pyrazin-2-yl)-1,4-dihydro-1,8-naphthyridine-3-carboxylic acid] as the molecule, how does the IC50 read?
**A.** ≤ 1000 nM

**Q.** Which IC50 does the source give for `Cc1cccnc1OC[C@H]1CCCN1c1c(F)cc2c(=O)c(C(=O)O)cn(-c3ccc(O)cc3F)c2c1F` [Example 20, (R)-6,8-difluoro-1-(2-fluoro-4-hydroxyphenyl)-7-(2-(((3-methylpyridin-2-yl)oxy)methyl)pyrrolidin-1-yl)-4-oxo-1,4-dihydroquinoline-3-carboxylic acid] here?
**A.** ≤ 1000 nM

**Q.** How did the IC50 turn out when `O=C(O)c1cn(-c2ccc(OCCO)cc2)c2cc(N3CCC[C@@H]3COc3ncccc3Br)c(F)cc2c1=O` [Example 21, (R)-7-(2-(((3-bromopyridin-2-yl)oxy)methyl)pyrrolidin-1-yl)-6-fluoro-1-(4-(2-hydroxyethoxy)phenyl)-4-oxo-1,4-dihydroquinoline-3-carboxylic acid] was run?
**A.** ≤ 1000 nM

**Q.** Which IC50 does the source give for `O=C(O)c1cn(-c2ccc(O)cc2F)c2cc(N3CCC[C@@H]3COc3ncccn3)c(F)cc2c1=O` [Example 22, (R)-6-fluoro-1-(2-fluoro-4-hydroxyphenyl)-4-oxo-7-(2-((pyrimidin-2-yloxy)methyl)pyrrolidin-1-yl)-1,4-dihydroquinoline-3-carboxylic acid] here?
**A.** 1000 to 10000 nM

**Q.** `Cc1ccnn(C[C@H]2CCCN2c2cc3c(cc2F)c(=O)c(C(=O)O)cn3-c2ccc(O)cc2)c1=O` [Example 23, (R)-6-fluoro-1-(4-hydroxyphenyl)-7-(2-((5-methyl-6-oxopyridazin-1(6H)-yl)methyl)pyrrolidin-1-yl)-4-oxo-1,4-dihydroquinoline-3-carboxylic acid] was tested. Which IC50 did it give?
**A.** ≤ 1000 nM

**Q.** `CC1(n2cc(C(=O)O)c(=O)c3cc(Cl)c(N4C(=O)CC[C@@H]4COc4ccccn4)cc32)CC1` [Example 24, (R)-6-chloro-1-(1-methylcyclopropyl)-4-oxo-7-(2-oxo-5-((pyridin-2-yloxy)methyl)pyrrolidin-1-yl)-1,4-dihydroquinoline-3-carboxylic acid] was tested. Which IC50 did it give?
**A.** > 50000 nM
